Data reported in patent publication US4845195A, “Inhibitor of ribonucleotide reductase” (Merck & Co., Inc., priority 1987, dated 1989).
Ends that are not written are not given here. Peptide text beside a SMILES is read from it. * marks the point of attachment. Desaminotyrosyl = O=C(CCc1ccc(O)cc1)*

How the values were obtained:
[1] = target: T1, Herpes Simplex Virus Ribonucleotide Reductase (Human herpesvirus 2, UniProt P89462); assay: Assay of Inhibition of HSV RR Activity (reduction of tritiated cytidine-diphosphate); assay type: biochemical, HSV2 Strain 186; conditions: 30 minutes at 37°C, dithiothreitol and MgCl2, enzyme not preincubated with inhibitor; read-out: IC50 (μM concentration of peptide producing 50% inhibition of enzyme activity)
T1 construct: HSV RR was purified from Baby Hamster Kidney cells that were cultured with HSV2 Strain 186; made in house; host or cells: Baby Hamster Kidney cells infected with HSV2 Strain 186
T1 sequence (P89462 whole entry): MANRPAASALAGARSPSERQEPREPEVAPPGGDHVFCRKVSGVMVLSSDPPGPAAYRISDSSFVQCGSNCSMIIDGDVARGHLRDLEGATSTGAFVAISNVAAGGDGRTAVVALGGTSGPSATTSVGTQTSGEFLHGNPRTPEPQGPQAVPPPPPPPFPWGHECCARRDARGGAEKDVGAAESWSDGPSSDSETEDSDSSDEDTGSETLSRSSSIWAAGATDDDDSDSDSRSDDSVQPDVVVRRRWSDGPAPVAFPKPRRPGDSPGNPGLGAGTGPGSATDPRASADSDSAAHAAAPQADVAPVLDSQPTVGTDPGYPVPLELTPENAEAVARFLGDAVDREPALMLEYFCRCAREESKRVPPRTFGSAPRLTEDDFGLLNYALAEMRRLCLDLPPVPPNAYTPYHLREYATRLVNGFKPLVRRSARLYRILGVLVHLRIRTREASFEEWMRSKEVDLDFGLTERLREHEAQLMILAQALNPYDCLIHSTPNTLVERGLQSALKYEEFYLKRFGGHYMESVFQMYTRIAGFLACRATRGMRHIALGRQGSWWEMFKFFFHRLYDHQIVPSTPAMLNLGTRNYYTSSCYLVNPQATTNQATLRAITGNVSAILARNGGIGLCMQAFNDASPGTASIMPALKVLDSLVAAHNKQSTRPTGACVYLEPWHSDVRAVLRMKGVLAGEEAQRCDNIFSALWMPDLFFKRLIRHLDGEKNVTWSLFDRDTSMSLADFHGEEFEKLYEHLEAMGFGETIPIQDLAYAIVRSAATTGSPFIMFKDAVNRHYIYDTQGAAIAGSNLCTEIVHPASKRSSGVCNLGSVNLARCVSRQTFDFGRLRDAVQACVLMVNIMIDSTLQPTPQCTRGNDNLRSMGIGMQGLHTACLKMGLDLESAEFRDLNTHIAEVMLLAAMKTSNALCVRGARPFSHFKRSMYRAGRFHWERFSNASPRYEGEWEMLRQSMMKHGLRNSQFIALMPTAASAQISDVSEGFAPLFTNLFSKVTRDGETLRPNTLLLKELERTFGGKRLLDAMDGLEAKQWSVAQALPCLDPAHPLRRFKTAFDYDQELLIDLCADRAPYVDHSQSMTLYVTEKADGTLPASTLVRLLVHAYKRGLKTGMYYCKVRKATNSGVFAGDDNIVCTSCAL
Method: After infection, cells were harvested and lysed. Crude HSV RR was prepared as described by Huszar et al., J. Virol.
HSV RR activity was determined as the ability of the enzyme to catalyze the reduction of tritiated cytidine-diphosphate to deoxyribo-cytidinediphosphate in 30 minutes at 37°C. in the presence of dithiothreitol and MgCl2. Activity of oligopeptide inhibitors was determined by adding them to the reaction mix at the beginning of the incubation. Enzyme was not preincubated with inhibitor.
These were analyzed for amino acid composition and in some cases sequenced. Dry peptides were resuspended in 100 mM HEPES (pH 8.0) at about 2mM, relyophilized, and stored in aliquots at -80° C. Immediately prior to use they were rehydrated with distilled H2 O and centrifuged to remove any undissolved peptide.

[2] = target: ribonucleotide reductase enzyme of herpes simplex virus (Human herpesvirus 1, UniProt P08543); conditions: Nature 321:439-441 and 441-443 (1986); cited from earlier work
ribonucleotide reductase enzyme of herpes simplex virus, sequence (P08543 whole entry): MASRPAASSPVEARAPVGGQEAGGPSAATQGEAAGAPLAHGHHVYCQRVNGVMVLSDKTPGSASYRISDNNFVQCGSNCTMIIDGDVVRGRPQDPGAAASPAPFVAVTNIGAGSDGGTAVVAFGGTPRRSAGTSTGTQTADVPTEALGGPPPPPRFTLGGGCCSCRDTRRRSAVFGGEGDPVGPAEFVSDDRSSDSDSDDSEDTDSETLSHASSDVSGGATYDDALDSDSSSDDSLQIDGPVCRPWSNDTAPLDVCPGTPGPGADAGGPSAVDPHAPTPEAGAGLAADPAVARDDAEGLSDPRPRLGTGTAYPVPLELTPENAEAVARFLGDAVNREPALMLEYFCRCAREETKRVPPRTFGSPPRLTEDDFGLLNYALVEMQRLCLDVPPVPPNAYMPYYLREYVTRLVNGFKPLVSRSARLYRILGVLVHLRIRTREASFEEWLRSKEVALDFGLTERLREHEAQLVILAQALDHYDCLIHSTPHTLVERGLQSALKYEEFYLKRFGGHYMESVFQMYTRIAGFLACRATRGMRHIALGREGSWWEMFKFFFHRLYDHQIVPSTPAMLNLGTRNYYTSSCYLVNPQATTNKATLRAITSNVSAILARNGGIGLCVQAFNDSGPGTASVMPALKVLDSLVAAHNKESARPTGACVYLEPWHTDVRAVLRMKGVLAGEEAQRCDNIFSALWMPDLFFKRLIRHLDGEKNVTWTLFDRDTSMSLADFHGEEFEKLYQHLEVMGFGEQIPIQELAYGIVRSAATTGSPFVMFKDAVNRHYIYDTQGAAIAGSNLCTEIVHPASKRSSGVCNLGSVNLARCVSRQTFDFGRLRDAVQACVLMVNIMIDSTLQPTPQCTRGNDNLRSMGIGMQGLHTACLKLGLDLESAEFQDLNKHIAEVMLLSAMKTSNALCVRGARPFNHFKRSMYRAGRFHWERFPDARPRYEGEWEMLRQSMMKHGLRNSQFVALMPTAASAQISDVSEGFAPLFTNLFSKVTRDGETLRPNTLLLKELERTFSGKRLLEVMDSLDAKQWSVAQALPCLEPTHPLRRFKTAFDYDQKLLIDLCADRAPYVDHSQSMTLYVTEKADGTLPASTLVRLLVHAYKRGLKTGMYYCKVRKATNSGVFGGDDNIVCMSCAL

| Compound | IC50 [1] [µM] | inhibition of the activity of the enzyme in vitro [2] |
| --- | --- | --- |
| CC(=O)N[C@@H](Cc1ccc(O)cc1)C(=O)N[C@@H](C)C(=O)NCC(=O)N[C@@H](C)C(=O)N[C@H](C(=O)N[C@H](C(=O)N[C@@H](CC(N)=O)C(=O)N[C@@H](CC(=O)O)C(=O)N[C@@H](CC(C)C)C(=O)O)C(C)C)C(C)C [AcYAGAVVNDL] | 5 | – |
| TSYAGAVVNDL [TSYAGAVVNDL] | 17 | – |
| SYAGAVVNDL [SYAGAVVNDL] | 17 | – |
| FPLSLMSTDKHTNFFECRSTSYAGAVVNDL | 8 | – |
| Ac-GAVVNDL [AcGAVVNDL] | 75 | – |
| GAVVNDL [GAVVNDL] | 70 | – |
| CC(C)C[C@H](NC(=O)[C@H](CC(=O)O)NC(=O)[C@H](CC(N)=O)NC(=O)[C@@H](NC(=O)[C@@H](NC(=O)[C@H](C)NC(=O)CNC(=O)[C@H](C)NC(=O)[C@@H](N)Cc1ccc(O)cc1)C(C)C)C(C)C)C(N)=O [YAGAVVNDL--NH2, YAGAVVNDL-NH2] | 75 | – |
| AVVNDL [AVVNDL] | 51 | – |
| AGAVVNDL [AGAVVNDL] | 80 | – |
| CC(C)C[C@H](NC(=O)[C@H](CC(=O)O)NC(=O)[C@H](CC(N)=O)NC(=O)[C@@H](NC(=O)[C@@H](NC(=O)[C@H](C)NC(=O)CNC(=O)[C@H](C)NC(=O)[C@@H](N)Cc1ccc(O)cc1)C(C)C)C(C)C)C(=O)O [YAGAVVNDL, Tyr Ala Gly Ala Val Val Asn Asp Leu, reference compound] | 10 | – |
| STSYAGAVVNDL [STSYAGAVVNDL] | 17 | – |
| CC(C)C[C@H](NC(=O)[C@H](CC(=O)O)NC(=O)[C@H](CC(N)=O)NC(=O)[C@@H](NC(=O)[C@@H](N)C(C)C)C(C)C)C(=O)O [VVNDL, Val Val Asn Asp Leu] | 250 | – |
| Tyr GVly Ala Val Val Asn Asp Leu | – | inhibited |
| CC(C)C[C@H](NC(=O)[C@H](CC(=O)O)NC(=O)[C@H](CC(N)=O)NC(=O)[C@@H](NC(=O)[C@@H](NC(=O)[C@H](C)NC(=O)CNC(=O)[C@H](C)NC(=O)CCc1ccc(O)cc1)C(C)C)C(C)C)C(=O)O [desNH2--YAGAVVNDL, desNH2-YAGAVVNDL] (Desaminotyrosyl-AGAVVNDL-OH) | 20 | – |
| Ac-AVVNDL [AcAVVNDL] | 87 | – |
